Reference: PMC8617944, “Preclinical Pharmacokinetics and Acute Toxicity in Rats of 5-{[(2E)-3-Bromo-3-carboxyprop-2-enoyl]amino}-2-hydroxybenzoic Acid: A Novel 5-Aminosalicylic Acid Derivative with Potent Anti-Inflammatory Activity” (Molecules, 2021)
“Also recorded” adds a separate entry of the source. Read-outs that look alike come from different tables or passages of the source.

Experiment: Distribution of C1 in tissues
Type: in vivo, Wistar rats
Settings: p.o. 75 mg/kg
Protocol: Fifteen male Wistar rats were distributed in five groups (n = 3) and rats were orally administered C1 at a single dose of 75 mg/kg. Subsequently, a group of animals was sacrificed (n = 3) at 10, 30, 90, 180, and 360 min. […] All tissues and organs were weighed on an analytical balance and immediately processed. Each tissue sample was homogenized with saline solution in a 1:3 (wt/v) ratio. The preparation process for analysis was the same as described above for plasma samples [57] (File S8).

## O=C(/C=C(/Br)C(=O)O)Nc1ccc(O)c(C(=O)O)c1 [Compound C1, 5-{[(2E)-3-bromo-3-carboxyprop-2-enoyl]amino}-2-hydroxybenzoic acid]
male, Wistar, rat, heart, po, 75 mg/kg, Hearth, 6 h, n = 3, read-out: Average Concentration
  concentration at 6 h: 2.7 µg/mL
male, Wistar, rat, heart, po, 75 mg/kg, Hearth, individual rats, read-out: Concentration (µg/mL) at 30 minutes, Rat 1-3
  concentration at 30 min: 3.8 µg/mL
male, Wistar, rat, heart, po, 75 mg/kg, Hearth, individual rats, read-out: Concentration (µg/mL) at 90 minutes, Rat 1-3
  concentration at 90 min: 2.7 µg/mL
male, Wistar, rat, heart, po, 75 mg/kg, Hearth, individual rats, read-out: Concentration (µg/mL) at 3 h, Rat 1-3
  concentration at 3 h: 2.5 µg/mL
male, Wistar, rat, heart, po, 75 mg/kg, Hearth, individual rats, read-out: Concentration (µg/mL) at 6 h, Rat 1-3
  concentration at 6 h: 2.4 µg/mL
male, Wistar, rat, kidney, po, 75 mg/kg, Kidney, 10 min, n = 3, read-out: Average Concentration
  concentration at 10 min: 16 µg/mL
male, Wistar, rat, kidney, po, 75 mg/kg, Kidney, 30 min, n = 3, read-out: Average Concentration
  concentration at 30 min: 6.9 µg/mL
male, Wistar, rat, kidney, po, 75 mg/kg, Kidney, 90 min, n = 3, read-out: Average Concentration
  concentration at 90 min: 4.8 µg/mL
male, Wistar, rat, kidney, po, 75 mg/kg, Kidney, 3 h, n = 3, read-out: Average Concentration
  concentration at 3 h: 4.7 µg/mL
male, Wistar, rat, kidney, po, 75 mg/kg, Kidney, 6 h, n = 3, read-out: Average Concentration
  concentration at 6 h: 4.1 µg/mL
male, Wistar, rat, kidney, po, 75 mg/kg, Kidney, individual rats, read-out: Concentration (µg/mL) at 30 minutes, Rat 1-3
  concentration at 30 min: 6.1 µg/mL
male, Wistar, rat, kidney, po, 75 mg/kg, Kidney, individual rats, read-out: Concentration (µg/mL) at 90 minutes, Rat 1-3
  concentration at 90 min: 3.6 µg/mL
male, Wistar, rat, liver, po, 75 mg/kg, Liver, 10 min, n = 3, read-out: Average Concentration
  concentration at 10 min: 4.6 µg/mL
male, Wistar, rat, liver, po, 75 mg/kg, Liver, 30 min, n = 3, read-out: Average Concentration
  concentration at 30 min: 6.4 µg/mL
male, Wistar, rat, liver, po, 75 mg/kg, Liver, 90 min, n = 3, read-out: Average Concentration
  concentration at 90 min: 4.4 µg/mL
male, Wistar, rat, liver, po, 75 mg/kg, Liver, 3 h, n = 3, read-out: Average Concentration
  concentration at 3 h: 4.9 µg/mL
male, Wistar, rat, liver, po, 75 mg/kg, Liver, 6 h, n = 3, read-out: Average Concentration
  concentration at 6 h: 4.2 µg/mL
male, Wistar, rat, liver, po, 75 mg/kg, Liver, individual rats, read-out: Concentration (µg/mL) at 10 minutes, Rat 1-3
  concentration at 10 min: 4.4 µg/mL
male, Wistar, rat, liver, po, 75 mg/kg, Liver, individual rats, read-out: Concentration (µg/mL) at 30 minutes, Rat 1-3
  concentration at 30 min: 5.8 µg/mL
male, Wistar, rat, lung, po, 75 mg/kg, Lung, 10 min, n = 3, read-out: Average Concentration
  concentration at 10 min: 15.7 µg/mL
male, Wistar, rat, lung, po, 75 mg/kg, Lung, 30 min, n = 3, read-out: Average Concentration
  concentration at 30 min: 10.7 µg/mL
male, Wistar, rat, lung, po, 75 mg/kg, Lung, 90 min, n = 3, read-out: Average Concentration
  concentration at 90 min: 7.4 µg/mL
male, Wistar, rat, lung, po, 75 mg/kg, Lung, 3 h, n = 3, read-out: Average Concentration
  concentration at 3 h: 7.2 µg/mL
male, Wistar, rat, lung, po, 75 mg/kg, Lung, 6 h, n = 3, read-out: Average Concentration
  concentration at 6 h: 6.3 µg/mL
male, Wistar, rat, muscle, po, 75 mg/kg, Muscle, 10 min, n = 3, read-out: Average Concentration
  concentration at 10 min: 4.7 µg/mL
male, Wistar, rat, muscle, po, 75 mg/kg, Muscle, 30 min, n = 3, read-out: Average Concentration
  concentration at 30 min: 3.8 µg/mL
male, Wistar, rat, muscle, po, 75 mg/kg, Muscle, 90 min, n = 3, read-out: Average Concentration
  concentration at 90 min: 3.3 µg/mL
male, Wistar, rat, muscle, po, 75 mg/kg, Muscle, 3 h, n = 3, read-out: Average Concentration
  concentration at 3 h: 2.7 µg/mL
male, Wistar, rat, muscle, po, 75 mg/kg, Muscle, 6 h, n = 3, read-out: Average Concentration
  concentration at 6 h: 2.5 µg/mL
male, Wistar, rat, muscle, po, 75 mg/kg, Muscle, individual rats, read-out: Concentration (µg/mL) at 10 minutes, Rat 1-3
  concentration at 10 min: 4.8 µg/mL
male, Wistar, rat, muscle, po, 75 mg/kg, Muscle, individual rats, read-out: Concentration (µg/mL) at 30 minutes, Rat 1-3
  concentration at 30 min: 3.4 µg/mL
male, Wistar, rat, muscle, po, 75 mg/kg, Muscle, individual rats, read-out: Concentration (µg/mL) at 90 minutes, Rat 1-3
  concentration at 90 min: 3.2 µg/mL
male, Wistar, rat, muscle, po, 75 mg/kg, Muscle, individual rats, read-out: Concentration (µg/mL) at 3 h, Rat 1-3
  concentration at 3 h: 3 µg/mL
male, Wistar, rat, po, rats, read-out: time of maximum concentration in tissues and organs (converted)
  Tmax: 10 min
male, Wistar, rat, small intestine, po, 75 mg/kg, Small intestine, 10 min, n = 3, read-out: Average Concentration
  concentration at 10 min: 31.6 µg/mL
male, Wistar, rat, small intestine, po, 75 mg/kg, Small intestine, 30 min, n = 3, read-out: Average Concentration
  concentration at 30 min: 15.7 µg/mL
male, Wistar, rat, small intestine, po, 75 mg/kg, Small intestine, 90 min, n = 3, read-out: Average Concentration
  concentration at 90 min: 15.8 µg/mL
male, Wistar, rat, small intestine, po, 75 mg/kg, Small intestine, 3 h, n = 3, read-out: Average Concentration
  concentration at 3 h: 14.8 µg/mL
male, Wistar, rat, small intestine, po, 75 mg/kg, Small intestine, 6 h, n = 3, read-out: Average Concentration
  concentration at 6 h: 10.1 µg/mL
male, Wistar, rat, small intestine, po, 75 mg/kg, Small intestine, individual rats, read-out: Concentration (µg/mL) at 90 minutes, Rat 1-3
  concentration at 90 min: 15.1 µg/mL
male, Wistar, rat, small intestine, po, 75 mg/kg, Small intestine, individual rats, read-out: Concentration (µg/mL) at 3 h, Rat 1-3
  concentration at 3 h: 14.2 µg/mL
male, Wistar, rat, small intestine, po, 75 mg/kg, Small intestine, individual rats, read-out: Concentration (µg/mL) at 6 h, Rat 1-3
  concentration at 6 h: 9.1 µg/mL
male, Wistar, rat, spleen, po, 75 mg/kg, Spleen, 10 min, n = 3, read-out: Average Concentration
  concentration at 10 min: 31.8 µg/mL
male, Wistar, rat, spleen, po, 75 mg/kg, Spleen, 30 min, n = 3, read-out: Average Concentration
  concentration at 30 min: 17.2 µg/mL
male, Wistar, rat, spleen, po, 75 mg/kg, Spleen, 90 min, n = 3, read-out: Average Concentration
  concentration at 90 min: 11.7 µg/mL
male, Wistar, rat, spleen, po, 75 mg/kg, Spleen, 3 h, n = 3, read-out: Average Concentration
  concentration at 3 h: 8.7 µg/mL
male, Wistar, rat, spleen, po, 75 mg/kg, Spleen, 6 h, n = 3, read-out: Average Concentration
  concentration at 6 h: 7.8 µg/mL
male, Wistar, rat, spleen, po, 75 mg/kg, Spleen, individual rats, read-out: Concentration (µg/mL) at 10 minutes, Rat 1-3
  concentration at 10 min: 30 µg/mL
male, Wistar, rat, spleen, po, 75 mg/kg, Spleen, individual rats, read-out: Concentration (µg/mL) at 30 minutes, Rat 1-3
  concentration at 30 min: 21 µg/mL
male, Wistar, rat, stomach, po, 75 mg/kg, Stomach, 10 min, n = 3, read-out: Average Concentration
  concentration at 10 min: 18.3 µg/mL
male, Wistar, rat, stomach, po, 75 mg/kg, Stomach, 30 min, n = 3, read-out: Average Concentration
  concentration at 30 min: 10.2 µg/mL
male, Wistar, rat, stomach, po, 75 mg/kg, Stomach, 90 min, n = 3, read-out: Average Concentration
  concentration at 90 min: 7.9 µg/mL
male, Wistar, rat, stomach, po, 75 mg/kg, Stomach, 3 h, n = 3, read-out: Average Concentration
  concentration at 3 h: 6.4 µg/mL
male, Wistar, rat, stomach, po, 75 mg/kg, Stomach, 6 h, n = 3, read-out: Average Concentration
  concentration at 6 h: 4.7 µg/mL
male, Wistar, rat, testis, po, 75 mg/kg, Testis, 10 min, n = 3, read-out: Average Concentration
  concentration at 10 min: 9.9 µg/mL
male, Wistar, rat, testis, po, 75 mg/kg, Testis, 30 min, n = 3, read-out: Average Concentration
  concentration at 30 min: 3.8 µg/mL
male, Wistar, rat, testis, po, 75 mg/kg, Testis, 90 min, n = 3, read-out: Average Concentration
  concentration at 90 min: 4 µg/mL
male, Wistar, rat, testis, po, 75 mg/kg, Testis, 3 h, n = 3, read-out: Average Concentration
  concentration at 3 h: 3 µg/mL
male, Wistar, rat, testis, po, 75 mg/kg, Testis, 6 h, n = 3, read-out: Average Concentration
  concentration at 6 h: 3.1 µg/mL
male, Wistar, rat, testis, po, 75 mg/kg, Testis, individual rats, read-out: Concentration (µg/mL) at 30 minutes, Rat 1-3
  concentration at 30 min: 4 µg/mL
male, Wistar, rat, testis, po, 75 mg/kg, Testis, individual rats, read-out: Concentration (µg/mL) at 3 h, Rat 1-3
  concentration at 3 h: 3.1 µg/mL
male, Wistar, rat, testis, po, 75 mg/kg, Testis, individual rats, read-out: Concentration (µg/mL) at 6 h, Rat 1-3
  concentration at 6 h: 2.1 µg/mL
rats, 75 mg/kg
  crossing of blood-brain barrier and hemato-testicular barrier: able to cross the blood-brain barrier and hemato-testicular barrier; also recorded: crossed the hemato-encephalic barrier
